The record followed here is ChEMBL document CHEMBL1157269, “Antineoplastic agents. 551. Isolation and structures of bauhiniastatins 1-4 from Bauhinia purpurea” (2006).

Format in all cases: functional
One test concerns P388. The test is described as follows: Growth inhibition of mouse P388 cells.
Another test has as its system DU-145. The experiment in a line: Growth inhibition of human DU145 cells.
The subject of the next test is KM-20L2. The test is described as follows: Growth inhibition of human KM20L2 cells.
In the next test the test system is MCF7. The test is described as follows: Growth inhibition of human MCF7 cells.
A further test concerns BXPC-3. The test is described as follows: Growth inhibition of human BXPC3 cells.
The test system of a further test is NCI-H460. The test is described as follows: Growth inhibition of human NCI-H460 cells.
Another test concerns SF-268. The experiment in a line: Growth inhibition of human SF268 cells.

In brackets after ≈: the same amount, converted by molar mass.

In the case of `COc1c(C)c(=O)c2oc3cccc(O)c3ccc=2c1=O` [BAUHINIASTATIN 1], the GI50 with P388 was 0.65 µg/mL (≈ 2.29 µM); with DU-145 it was over 10 µg/mL; with KM-20L2, over 10 µg/mL; in the test on MCF7, 4.1 µg/mL (≈ 14.4 µM); in the test with BXPC-3, 7 µg/mL (≈ 24.6 µM); in the test with NCI-H460 it was 6.6 µg/mL (≈ 23.2 µM). The GI50 in the test with SF-268 came out at 2.4 µg/mL (≈ 8.44 µM).
Consider `COc1c(C)c(O)c2c(c1OC)C=Cc1c(O)cccc1O2` [BAUHINIASTATIN 2], for which the GI50 with P388 is 23.2 µg/mL (≈ 77.3 µM); with DU-145, 3.8 µg/mL (≈ 12.7 µM); in the test on KM-20L2, over 10 µg/mL; in the test with MCF7 it was 3.1 µg/mL (≈ 10.3 µM); in the test with BXPC-3, 3.8 µg/mL (≈ 12.7 µM); in the test with NCI-H460, 3.5 µg/mL (≈ 11.7 µM). In the test with SF-268, this molecule returned a GI50 of 3.2 µg/mL (≈ 10.7 µM).
`COc1cc2c(c(O)c1C)Oc1c(O)ccc(OC)c1C=C2` [BAUHINIASTATIN 3]: the GI50 was 15.7 µg/mL (≈ 52.3 µM) in the test on P388; 5.8 µg/mL (≈ 19.3 µM) in the test with DU-145; over 10 µg/mL with KM-20L2; 3.2 µg/mL (≈ 10.7 µM) in the test on MCF7; 6.6 µg/mL (≈ 22 µM) in the test with BXPC-3; 6.1 µg/mL (≈ 20.3 µM) in the test on NCI-H460. For the same molecule, growth with SF-268 was halved (GI50) at 5.8 µg/mL (≈ 19.3 µM).
As for `COc1c(C)c(O)cc2c1Oc1cccc(O)c1C=C2` [BAUHINIASTATIN 4], the GI50 in the test with P388 is 61.5 µg/mL (≈ 228 µM).
The same measure, in the same setting: the same measure for `O=c1[nH]cc(F)c(=O)[nH]1` [FLUOROURACIL]: 0.073 µg/mL (≈ 0.561 µM).
For `COc1cc2c(c(O)c1C)Oc1cccc(O)c1C=C2` [PACHARIN], the GI50 in the test with P388 was 15.5 µg/mL (≈ 57.3 µM); with DU-145 it was 3.3 µg/mL (≈ 12.2 µM); in the test with KM-20L2, over 10 µg/mL; with MCF7, 2.3 µg/mL (≈ 8.51 µM); with BXPC-3, 4.3 µg/mL (≈ 15.9 µM); in the test with NCI-H460, 4.2 µg/mL (≈ 15.5 µM). In the test with SF-268, this molecule had a GI50 of 3.1 µg/mL (≈ 11.5 µM).

As a reminder, the GI50 is the concentration at which growth is held to half of that of the control. Low values mean more potent growth inhibition, high ones less potent growth inhibition.
